Experimental data: patent US8895746B2 (University of Central Florida Research Foundation, Inc., priority 2009, dated 2014)

Tests used:
[1] = tested on: human breast cancer (MDA-MB-231) xenografts; conditions: mouse, in vivo
From the text: Wounds were made using pipette tips in monolayer cultures of cells in six-well plates. […] The migration of cells was visualized at a 10× magnification using an Axiovert 200 Inverted Fluorescence Microscope (Zeiss, Göttingen Germany), with pictures taken using a mounted Canon Powershot A640 digital camera (Canon USA, Lake Success, N.Y.). Cells that migrated into the denuded area were quantified. Mice and in vivo tumor studies-Six-week-old female athymic nude mice were purchased from Harlan and maintained in the institutional animal facilities approved by the American Association for Accreditation of Laboratory Animal Care. Athymic nude mice were injected subcutaneously in the left flank area with 5×10^6 human breast cancer MDA-MB-231 cells in 100 μL of PBS. After 5 to 10 days, tumors of a diameter of 3 mm were established. […] Tumor volume was calculated according to the formula V=0.52×a^2×b, where a, smallest superficial diameter, b, largest superficial diameter.

NIH3T3/v-Ras = assay: Soft-agar colony formation assay; type: cell-based, mouse; conditions: concentrations that inhibit Stat3
Description: Colony formation assays were carried out in 6-well dishes, as described previously (16,37). Briefly, each well contained 1.5 ml of 1% agarose in Dulbeco's modified Eagle's medium as the bottom layer and 1.5 ml of 0.5% agarose in Dulbeco's modified Eagle's medium containing 4000 or 6000 NIH3T3/v-Src or NIH3T3/v-Ras fibroblasts, respectively, as the top layer. Treatment with S3I201.1066 was initiated 1 day after seeding cells by adding 80 μl of medium with or without S3I20.1.1066, and repeating every 3 days, until large colonies were evident. Colonies were quantified by staining with 20 μl of 1 mg/ml crystal violet, incubating at 37° C. overnight, and counting the next day under phase contrast microscope.

[2] = tested on: NIH3T3/v-Src, Panc-1 and MDA-MB-231 cells; assay: Colony survival assay; type: cell-based, mouse, human; conditions: treated once
Description: This was performed as previously reported (39). […] Colonies were stained with crystal violet for 4 h and counted under phase-contrast microscope.
Cultured single-cells were untreated or treated once with S3I-201.1066 and allowed to grow until large colonies were visible, which were stained and enumerated.

Compound: Cc1ccc(S(=O)(=O)N(C)CC(=O)N(Cc2ccc(C3CCCCC3)cc2)c2ccc(C(=O)O)c(O)c2)cc1 [S3I-201.1066]
- toxicity in tumor-bearing mice [1]: no obvious sign of toxicity
- soft-agar growth (NIH3T3/v-Ras): minimal effect
- number of colonies, colony survival [2]: dose-dependent suppression
